Activity calls are given as the source filed them. The rule behind the calls is not given here.
Columns and labels:
[1] = tested on: Rattus norvegicus; test: Increase in body weight in lean Wistar rat at 70 mg/kg/day after 4 weeks; assay type: functional
[2] = tested on: Rattus norvegicus; test: Increase in body weight in cafteria-fed Wistar rat at 70 mg/kg/day after 4 weeks; assay type: functional
[3] = tested on: Rattus norvegicus; test: Increase in triglyceride level in lean Wistar rat at 70 mg/kg/day relative to control; assay type: functional
[4] = tested on: Rattus norvegicus; test: Increase in triglyceride level in cafteria-fed Wistar rat at 70 mg/kg/day relative to control; assay type: functional
[5] = tested on: Rattus norvegicus; test: Effect on HDL cholesterol level in lean Wistar rat at 70 mg/kg/day relative to control; assay type: functional
[6] = tested on: Rattus norvegicus; test: Effect on HDL cholesterol level in cafteria-fed Wistar rat at 70 mg/kg/day relative to control; assay type: functional
[7] = tested on: Rattus norvegicus; test: Effect on LDL cholesterol level in lean Wistar rat at 70 mg/kg/day relative to control; assay type: functional
[8] = tested on: Rattus norvegicus; test: Effect on LDL cholesterol level in cafteria-fed Wistar rat at 70 mg/kg/day relative to control; assay type: functional
[9] = tested on: Rattus norvegicus; test: Increase in cellularity in cafteria-fed Wistar rat inguinal tissue assessed as DNA content at 70 mg/kg/day; assay type: functional
[10] = tested on: Rattus norvegicus; test: Decrease in inguinal adipocyte size in cafteria-fed Wistar rat at 70 mg/kg/day; assay type: functional
[11] = tested on: Rattus norvegicus; test: Decrease in epididymal adipocyte size in cafteria-fed Wistar rat at 70 mg/kg/day; assay type: functional, organism-based
[12] = tested on: Rattus norvegicus; test: Decrease in cytochrome c oxidase activity in lean Wistar rat inguinal adipose tissue at 70 mg/kg/day by DNA quantification assay; assay type: organism-based
[13] = tested on: Rattus norvegicus; test: Decrease in cytochrome c oxidase activity in cafteria-fed Wistar rat inguinal adipose tissue at 70 mg/kg/day by DNA quantification assay; assay type: organism-based
[14] = biological target: Fatty acid synthase (Rattus norvegicus) (UniProt P12785); test: Decrease in fatty acid synthase activity in lean Wistar rat inguinal adipose tissue assessed at 70 mg/kg/day by DNA quantification assay; assay type: organism-based
[15] = biological target: Fatty acid synthase (Rattus norvegicus) (UniProt P12785); test: Decrease in fatty acid synthase activity in Wistar cafteria-fed rat inguinal adipose tissue at 70 mg/kg/day by DNA quantification assay; assay type: organism-based
[16] = tested on: Rattus norvegicus; test: Increase in AMPK phosphorylation level in rat inguinal adipose cells at 70 mg/kg/day; assay type: organism-based
[17] = tested on: Rattus norvegicus; test: Effect on AMPK phosphorylation level in rat epididymal adipose cell at 70 mg/kg/day; assay type: organism-based
[18] = biological target: Fatty acid synthase (Rattus norvegicus) (UniProt P12785); test: Decrease in fatty acid synthase activity in lean Wistar rat epididymal adipose tissue assessed at 70 mg/kg/day by DNA quantification assay; assay type: organism-based
[19] = biological target: Fatty acid synthase (Rattus norvegicus) (UniProt P12785); test: Decrease in fatty acid synthase activity in Wistar cafteria-fed rat epididymal adipose tissue at 70 mg/kg/day by DNA quantification assay; assay type: organism-based

Sequence of Fatty acid synthase (Rattus norvegicus) (P12785 whole entry): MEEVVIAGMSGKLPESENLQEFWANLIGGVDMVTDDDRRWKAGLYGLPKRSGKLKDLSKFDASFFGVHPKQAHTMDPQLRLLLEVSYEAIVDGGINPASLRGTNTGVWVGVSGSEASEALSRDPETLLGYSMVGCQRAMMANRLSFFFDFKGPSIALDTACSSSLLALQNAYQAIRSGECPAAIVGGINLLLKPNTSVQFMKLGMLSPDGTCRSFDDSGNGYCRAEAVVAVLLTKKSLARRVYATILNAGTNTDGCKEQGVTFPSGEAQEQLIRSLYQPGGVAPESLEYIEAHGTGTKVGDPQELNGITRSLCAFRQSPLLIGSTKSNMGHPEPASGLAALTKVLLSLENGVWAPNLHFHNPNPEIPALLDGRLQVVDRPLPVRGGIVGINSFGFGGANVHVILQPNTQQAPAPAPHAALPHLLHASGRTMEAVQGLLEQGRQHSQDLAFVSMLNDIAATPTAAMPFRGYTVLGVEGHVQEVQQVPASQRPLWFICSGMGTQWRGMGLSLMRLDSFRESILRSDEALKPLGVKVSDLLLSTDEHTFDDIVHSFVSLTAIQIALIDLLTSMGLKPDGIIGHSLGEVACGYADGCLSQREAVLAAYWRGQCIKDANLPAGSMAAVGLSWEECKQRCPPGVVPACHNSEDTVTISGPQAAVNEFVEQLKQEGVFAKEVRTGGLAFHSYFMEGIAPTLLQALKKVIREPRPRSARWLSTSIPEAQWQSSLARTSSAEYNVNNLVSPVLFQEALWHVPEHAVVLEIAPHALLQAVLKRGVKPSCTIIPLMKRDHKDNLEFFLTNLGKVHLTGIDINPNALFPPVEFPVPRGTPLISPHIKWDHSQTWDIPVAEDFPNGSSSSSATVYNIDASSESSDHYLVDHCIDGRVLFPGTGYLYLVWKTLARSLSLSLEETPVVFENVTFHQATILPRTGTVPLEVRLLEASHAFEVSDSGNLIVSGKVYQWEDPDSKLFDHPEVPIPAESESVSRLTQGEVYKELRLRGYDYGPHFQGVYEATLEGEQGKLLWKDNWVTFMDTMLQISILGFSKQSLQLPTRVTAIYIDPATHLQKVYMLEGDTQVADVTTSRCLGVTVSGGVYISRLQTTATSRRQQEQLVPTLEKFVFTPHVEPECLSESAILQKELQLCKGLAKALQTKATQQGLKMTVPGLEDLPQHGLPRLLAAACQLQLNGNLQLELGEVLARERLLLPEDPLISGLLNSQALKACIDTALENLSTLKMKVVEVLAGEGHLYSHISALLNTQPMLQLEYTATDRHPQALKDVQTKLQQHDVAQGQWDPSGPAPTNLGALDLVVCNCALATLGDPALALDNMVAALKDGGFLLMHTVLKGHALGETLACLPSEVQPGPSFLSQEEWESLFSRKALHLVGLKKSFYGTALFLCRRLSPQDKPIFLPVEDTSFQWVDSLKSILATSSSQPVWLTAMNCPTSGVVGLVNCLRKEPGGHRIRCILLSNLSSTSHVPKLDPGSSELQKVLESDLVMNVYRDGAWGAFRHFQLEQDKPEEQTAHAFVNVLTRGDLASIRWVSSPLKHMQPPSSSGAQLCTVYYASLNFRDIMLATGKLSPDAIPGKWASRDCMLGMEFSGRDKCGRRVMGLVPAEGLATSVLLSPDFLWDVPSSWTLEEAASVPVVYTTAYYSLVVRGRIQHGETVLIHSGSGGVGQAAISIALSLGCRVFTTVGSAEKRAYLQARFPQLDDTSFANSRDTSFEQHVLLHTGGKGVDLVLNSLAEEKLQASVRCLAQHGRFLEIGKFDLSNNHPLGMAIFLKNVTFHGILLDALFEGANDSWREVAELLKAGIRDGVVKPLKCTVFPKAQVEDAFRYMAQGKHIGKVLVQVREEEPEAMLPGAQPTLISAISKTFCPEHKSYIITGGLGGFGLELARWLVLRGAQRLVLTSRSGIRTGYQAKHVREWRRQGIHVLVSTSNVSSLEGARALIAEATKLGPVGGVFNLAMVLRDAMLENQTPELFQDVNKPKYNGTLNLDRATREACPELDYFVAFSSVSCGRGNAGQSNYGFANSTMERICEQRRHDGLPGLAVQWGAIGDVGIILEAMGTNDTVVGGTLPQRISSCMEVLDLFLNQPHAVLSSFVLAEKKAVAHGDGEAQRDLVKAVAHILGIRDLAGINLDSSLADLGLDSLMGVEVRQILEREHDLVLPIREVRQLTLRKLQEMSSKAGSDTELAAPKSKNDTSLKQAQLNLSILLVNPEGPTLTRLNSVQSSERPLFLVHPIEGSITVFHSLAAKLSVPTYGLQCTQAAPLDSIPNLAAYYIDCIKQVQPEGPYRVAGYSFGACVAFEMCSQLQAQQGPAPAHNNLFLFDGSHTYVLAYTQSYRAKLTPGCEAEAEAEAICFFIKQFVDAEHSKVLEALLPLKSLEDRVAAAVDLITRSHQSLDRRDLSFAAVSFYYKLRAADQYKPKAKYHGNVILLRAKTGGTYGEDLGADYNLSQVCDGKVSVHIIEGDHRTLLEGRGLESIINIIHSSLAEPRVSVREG

Cc1cn([C@H]2C[C@H](N=[N+]=[N-])[C@@H](CO)O2)c(=O)[nH]c1=O [ZIDOVUDINE]
Activity [1]: 401 g | Activity [2]: 443 g | Activity [3]: 2.11 mM | Activity [4]: 1.96 mM | Activity [5]: 0.43 mM | Activity [6]: 0.32 mM | Activity [7]: 0.27 mM | Activity [8]: 0.6 mM | Activity [9]: 625 µg | Activity [10]: 2082 um2 | Activity [11]: inactive | Activity [12]: 6.61 U/mg | Activity [13]: 6.43 U/mg | Activity [14]: 0.72 U/mg | Activity [15]: 0.55 U/mg | Activity [16]: Active | Activity [17]: Active | Activity [18]: inactive | Activity [19]: inactive
